These results are taken from patent publication US20260042764A1, “COMPOSITIONS AND METHODS FOR INHIBITION OF KRAS” (TheRas, Inc., priority 2022, published 2026).

Broadly, the IC50 is the point on the concentration scale where inhibition reaches its midpoint.

Assay [1] concerns SW620 cells (KRAS G12V). Nature of the assay: Cell-based pERK HTRF assay in SW620 cell (Biological Example 4). An outline of the steps:
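Read-out: HTRF pERK signal (excitation 320 nm, emission 615 nm) from lysates of SW620 cells after 4 h compound exposure. Dose range was 9 points, half-log steps from 1 μM, in 0.25% DMSO; antibody incubation ran 4–24 h at room temperature.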
In general terms: TR-FRET usually uses a lanthanide donor and a delayed reading to cut background.

The target of assay [2] is T1, Avi-KRAS G12C (2-169) GTP/RAF1 RBD-3xFLAG (51-131) (Homo sapiens, UniProt P01116, G12C).
T1 construct: Avi-KRAS G12C (2-169)
T1 sequence (P01116 2-169 isoform P01116-2 G12C): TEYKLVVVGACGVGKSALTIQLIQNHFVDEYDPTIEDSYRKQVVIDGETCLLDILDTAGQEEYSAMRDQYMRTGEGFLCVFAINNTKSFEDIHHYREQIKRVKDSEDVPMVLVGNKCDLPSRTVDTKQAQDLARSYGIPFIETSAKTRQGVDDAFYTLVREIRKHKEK
Briefly: Raf1-KRAS G12C-GTP disruption HTRF assay (Biological Example 3). It is filed as binding. The conditions noted are these: KRAS G12C, GTP-loaded. An outline of the steps: (§1)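 Compounds were titrated 10-point, 3-fold from 30 μM against preformed KRAS-GTP:RAF1 RBD (51-131) complexes at 50 nM, using KRAS 2-169 as WT, G12C, G12D or G12V. After 1 h at room temperature in Tris pH 7.5 buffer with MgCl2 and 10% DMSO, time-resolved fluorescence was read. Results are percent activity versus DMSO.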

Assay [3] addresses T2, Avi-KRAS G12D (2-169) GTP/RAF1 RBD-3xFLAG (51-131) (Homo sapiens, UniProt P01116, G12D).
T2 construct: Avi-KRAS G12D (2-169)
Briefly: Raf1-KRAS G12D-GTP disruption HTRF assay (Biological Example 3). The format is binding. To be noted: KRAS G12D, GTP-loaded. An outline of the steps: as §1

The target of assay [4] is T3, Avi-KRAS G12V (2-169) GTP/RAF1 RBD-3xFLAG (51-131) (Homo sapiens, UniProt P01116, G12V).
T3 construct: Avi-KRAS G12V (2-169)
T3 sequence (P01116 2-169 isoform P01116-2 G12V): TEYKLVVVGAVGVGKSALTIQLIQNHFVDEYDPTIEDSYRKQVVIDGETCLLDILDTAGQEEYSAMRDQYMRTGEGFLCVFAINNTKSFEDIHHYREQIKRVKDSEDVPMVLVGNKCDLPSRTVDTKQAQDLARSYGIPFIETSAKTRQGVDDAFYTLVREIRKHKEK
Briefly: Raf1-KRAS G12V-GTP disruption HTRF assay (Biological Example 3). It is filed as binding. To be noted: KRAS G12V, GTP-loaded. An outline of the steps: as §1

Assay [5] concerns GP2d cells (KRAS G12D). Nature of the assay: Cell-based pERK HTRF assay in GP2d cell (Biological Example 2). The conditions noted are these: GP2d (KRAS G12D) cells. An outline of the steps:
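Phospho-ERK in lysed cells was detected by HTRF using Eu cryptate and d2 antibodies, read between 4 and 24 h at room temperature. Prior to lysis, KRAS G12D GP2d cells, seeded the day before in DMEM with 10% FBS, were exposed to compounds for 60 min. Compounds were tested as 9-point half-log curves from 1 μM or 100 nM top, with 0.25% DMSO.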

The target of assay [6] is T4, Avi-KRAS WT (2-169) GTP/RAF1 RBD-3xFLAG (51-131) (Homo sapiens, UniProt P01116).
T4 construct: Avi-KRAS WT (2-169)
T4 sequence (P01116 2-169 isoform P01116-2): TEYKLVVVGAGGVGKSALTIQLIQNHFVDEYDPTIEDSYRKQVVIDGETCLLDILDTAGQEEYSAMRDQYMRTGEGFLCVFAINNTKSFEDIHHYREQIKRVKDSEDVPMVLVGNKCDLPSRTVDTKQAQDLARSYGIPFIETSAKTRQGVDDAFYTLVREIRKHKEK
Nature of the assay: Raf1-KRAS WT-GTP disruption HTRF assay (Biological Example 3). To be noted: KRAS WT, GTP-loaded. It is filed as binding. An outline of the steps:
as §1

[7] abbreviates: Homo sapiens, SW-620, SW620 (KRAS G12V) cells.

Some results are limits rather than exact numbers.

T2 sequence (P01116 2-169 isoform P01116-2 G12D): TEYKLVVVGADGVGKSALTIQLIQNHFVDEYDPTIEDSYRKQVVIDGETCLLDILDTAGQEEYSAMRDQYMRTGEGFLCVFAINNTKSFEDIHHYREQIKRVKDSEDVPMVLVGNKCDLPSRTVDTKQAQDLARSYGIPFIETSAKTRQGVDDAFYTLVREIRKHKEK

Regarding `CCN(c1nc(OC[C@@]23CCCN2C[C@H](F)C3)nc2c(F)c(-c3ccc(F)c4sc(N)c(C#N)c34)c(C(F)(F)F)cc12)[C@H]1C[C@H]2CN(CC(F)F)C(=O)N2C1` (atropisomer, axis not shown) [Compound 940], the half-inhibitory concentration (IC50) is less than 100 nM in assay [1] (setting [7]); 100 to 1000 nM in assay [2]; 100 to 1000 nM in assay [3]; 100 to 1000 nM in assay [4]; less than 100 nM in assay [5] (GP2d); 100 to 1000 nM in assay [6].

With `CCN(c1nc(OC[C@@]23CCCN2C[C@H](F)C3)nc2c(F)c(-c3ccc(F)c4sc(N)c(C#N)c34)c(C(F)(F)F)cc12)[C@H]1C[C@H]2CN(C3CCC3)C(=O)N2[C@@H]1C` (atropisomer, axis not shown) [Compound 970], the IC50 in assay [1] (setting [7]) is less than 100 nM; in assay [2] it was 100 to 1000 nM; in assay [3], 100 to 1000 nM; in assay [4] it was 100 to 1000 nM; in assay [5] (GP2d) it was less than 100 nM; in assay [6], 100 to 1000 nM.

For the compound `CCN(c1nc(OC[C@@]23CCCN2C[C@H](F)C3)nc2c(F)c(-c3ccc(F)c4sc(N)c(C#N)c34)c(C(F)(F)F)cc12)[C@@H]1CC[C@@H](C(=O)N(C)C)C1` (atropisomer, axis not shown) [Compound 827], the IC50 in assay [1] (setting [7]) was less than 100 nM; in assay [2], 1000 to 10000 nM; in assay [3], 1000 to 10000 nM; in assay [4], 1000 to 10000 nM; in assay [5] (GP2d), less than 100 nM; in assay [6], 1000 to 10000 nM.

For `CCN(c1nc(OC[C@@]23CCCN2C[C@H](F)C3)nc2c(F)c(-c3ccc(F)c4sc(N)c(C#N)c34)c(C(F)(F)F)cc12)C1CCN(C(=O)OC)C1` (stereo partly drawn) [Compound 947], the IC50 is 100 to 1000 nM in assay [1] (SW620 (KRAS G12V) cells); 1000 to 10000 nM in assay [2]; 1000 to 10000 nM in assay [3]; greater than 10000 nM in assay [4]; less than 100 nM in assay [5]; greater than 10000 nM in assay [6].

In the case of `CCN(c1nc(OC[C@@]23CCCN2C[C@H](F)C3)nc2c(F)c(-c3ccc(F)c4sc(N)c(C#N)c34)c(C(F)(F)F)cc12)[C@H]1C[C@H]2CC(C)(C)C(=O)N2C1` (atropisomer, axis not shown) [Compound 864], the IC50 was less than 100 nM in assay [1] (setting [7]); 100 to 1000 nM in assay [2]; no more than 100 nM in assay [3]; 100 to 1000 nM in assay [4]; less than 100 nM in assay [5] (GP2d); 100 to 1000 nM in assay [6].

In the case of `CCN(c1nc(OCC23CCCN2CC(F)C3)nc2c(F)c(-c3ccc(F)c4sc(N)c(C#N)c34)c(C(F)(F)F)cc12)C1CCN(C(=O)c2nc(C)ns2)C1` (stereo not drawn) [Compound 932], the 50% inhibitory concentration (IC50) in assay [1] (setting [7]) was less than 100 nM; in assay [2] it was 100 to 1000 nM; in assay [3] it was 100 to 1000 nM; in assay [4] it was 1000 to 10000 nM; in assay [5] (GP2d) it was less than 100 nM; in assay [6], 1000 to 10000 nM.

Take `CCN(c1nc(OC[C@@]23CCCN2C[C@H](F)C3)nc2c(F)c(-c3ccc(F)c4sc(N)c(C#N)c34)c(C(F)(F)F)cc12)[C@H]1CCN(C(=O)C2COC2)[C@@H]1C` (atropisomer, axis not shown) [Compound 833]: the IC50 in assay [1] (setting [7]) is less than 100 nM; in assay [2], 100 to 1000 nM; in assay [3] it was no more than 100 nM; in assay [4] it was 100 to 1000 nM; in assay [5] (GP2d), less than 100 nM; in assay [6] it was 100 to 1000 nM.

For `CN(Cc1cocn1)c1nc(OC[C@@]23CCCN2C[C@H](F)C3)nc2c(F)c(-c3ccc(F)c4sc(N)c(C#N)c34)c(C(F)(F)F)cc12` (atropisomer, axis not shown) [Compound 855], the 50% inhibitory concentration (IC50) in assay [1] (setting [7]) is less than 100 nM; in assay [2], 100 to 1000 nM; in assay [3] it was 100 to 1000 nM; in assay [4], 100 to 1000 nM; in assay [5] (GP2d), less than 100 nM; in assay [6], 100 to 1000 nM.

For the compound `CCN(c1nc(OC[C@@]23CCCN2C[C@H](F)C3)nc2c(F)c(-c3ccc(F)c4sc(N)c(C#N)c34)c(C(F)(F)F)cc12)[C@H]1CCN(C(=O)O[C@H](C)C(F)(F)F)C1` (atropisomer, axis not shown) [Compound 850], the IC50 in assay [1] (setting [7]) was less than 100 nM; in assay [2] it was 100 to 1000 nM; in assay [3], 100 to 1000 nM; in assay [4], 1000 to 10000 nM; in assay [5] (GP2d), less than 100 nM; in assay [6], 1000 to 10000 nM.

For `CCN(c1nc(OC[C@@]23CCCN2C[C@H](F)C3)nc2c(F)c(-c3ccc(F)c4sc(N)c(C#N)c34)c(C(F)(F)F)cc12)[C@H]1C[C@H]2[C@@H](C)N(C)C(=O)N2C1` (atropisomer, axis not shown) [Compound 910], the IC50 in assay [1] (setting [7]) was less than 100 nM; in assay [2], 100 to 1000 nM; in assay [3], 100 to 1000 nM; in assay [4] it was 100 to 1000 nM; in assay [5] (GP2d), less than 100 nM; in assay [6], 100 to 1000 nM.

For the compound `CN(Cc1ncoc1C#N)c1nc(OC[C@@]23CCCN2C[C@H](F)C3)nc2c(F)c(-c3ccc(F)c4sc(N)c(C#N)c34)c(C(F)(F)F)cc12` (atropisomer, axis not shown) [Compound 953], the concentration for half-maximal inhibition (IC50) was 100 to 1000 nM in assay [1] (setting [7]); 1000 to 10000 nM in assay [2]; 100 to 1000 nM in assay [3]; 1000 to 10000 nM in assay [4]; less than 100 nM in assay [5] (GP2d); 1000 to 10000 nM in assay [6].

On to `CCN(c1nc(OC[C@@]23CCCN2C[C@H](F)C3)nc2c(F)c(-c3ccc(F)c4sc(N)c(C#N)c34)c(C(F)(F)F)cc12)[C@H]1CCN(C(=O)[C@H]2CCO2)[C@H]1C` (atropisomer, axis not shown) [Compound 868], for which the IC50 in assay [1] (setting [7]) was 100 to 1000 nM; in assay [2], 1000 to 10000 nM; in assay [3], 100 to 1000 nM; in assay [4], 1000 to 10000 nM; in assay [5] (GP2d), less than 100 nM; in assay [6], 1000 to 10000 nM.

Turning to `CCN(c1nc(OC[C@@]23CCCN2C[C@H](F)C3)nc2c(F)c(-c3ccc(F)c4sc(N)c(C#N)c34)c(C(F)(F)F)cc12)[C@H]1C[C@H](C)N(C(=O)C2C[C@H]2F)C1` (stereo partly drawn) [Compound 884], the IC50 is less than 100 nM in assay [1] (setting [7]); no more than 100 nM in assay [2]; 100 to 1000 nM in assay [3]; no more than 100 nM in assay [4]; less than 100 nM in assay [5] (GP2d); 100 to 1000 nM in assay [6].

As to `CCN(c1nc(OC[C@@]23CCCN2C[C@H](F)C3)nc2c(F)c(-c3ccc(F)c4sc(N)c(C#N)c34)c(C(F)(F)F)cc12)[C@H]1CCN(C(=O)O[C@H]2CO[C@H]3OCC[C@H]32)C1` (atropisomer, axis not shown) [Compound 816], the concentration for half-maximal inhibition (IC50) in assay [1] (setting [7]) was less than 100 nM; in assay [2], no more than 100 nM; in assay [3], 100 to 1000 nM; in assay [4], 100 to 1000 nM; in assay [5] (GP2d), less than 100 nM; in assay [6], 100 to 1000 nM.

Regarding `CCN(c1nc(OC[C@@]23CCCN2C[C@H](F)C3)nc2c(F)c(-c3ccc(F)c4sc(N)c(C#N)c34)c(C(F)(F)F)cc12)[C@H]1C[C@H](C)N(C(=O)C2C[C@@H]2F)C1` (stereo partly drawn) [Compound 886], the IC50 was less than 100 nM in assay [1] (setting [7]); no more than 100 nM in assay [2]; 100 to 1000 nM in assay [3]; no more than 100 nM in assay [4]; less than 100 nM in assay [5] (GP2d); 100 to 1000 nM in assay [6].

Regarding `C/C=C/C(=O)N1C[C@@H](N(CC)c2nc(OC[C@@]34CCCN3C[C@H](F)C4)nc3c(F)c(-c4ccc(F)c5sc(N)c(C#N)c45)c(C(F)(F)F)cc23)C[C@@H]1COC` (atropisomer, axis not shown) [Compound 845], the IC50 in assay [1] (setting [7]) was less than 100 nM; in assay [2], 100 to 1000 nM; in assay [3] it was 100 to 1000 nM; in assay [4], 100 to 1000 nM; in assay [5] (GP2d) it was less than 100 nM; in assay [6], 100 to 1000 nM.
